Patent US12168659B2, “Thioamide derivative and preparation method and application thereof” (Yunbaiyao Zhengwu Science and Technology (Shanghai) Co., …, priority 2022, dated 2024)

Key:
[1] = tested on: human prostate cancer cells (PC-3); assay: Anti-proliferative activity, CCK-8 assay, PC-3; type: cell-based; conditions: 72 h incubation
Procedure: (§1) Experimental procedure: Sample solutions with a concentration of 20 μM were prepared and serially diluted 5-fold downwards to obtain 10 concentrations: 20000 nM, 4000 nM, 800 nM, 160 nM, 32 nM, 6.4 nM, 1.28 nM, 0.256 nM, 0.0512 nM and 0.01024 nM. The sample solutions were incubated with the above cell lines for 72 h. Then 10 μL of a CCK-8 solution was then added to each well, followed by a further 2 hours incubation. An optical density (OD) value was measured at 450 nm using a fully automated microplate reader. Data were processed using GraphPad Prism 7 to calculate IC50.

[2] = tested on: human malignant melanoma cells (A375); assay: Anti-proliferative activity, CCK-8 assay, A375; type: cell-based; conditions: A-375, 72 h incubation
Procedure: as §1

MEK2 = MEK2 (Homo sapiens, UniProt P36507); assay: Raf-MEK-ERK cascade kinase assay using recombinant protein (MEK2); type: biochemical; conditions: 10 μM ATP, active B-Raf (V599E), 30° C. 30 minutes
MEK2, sequence (P36507 whole entry): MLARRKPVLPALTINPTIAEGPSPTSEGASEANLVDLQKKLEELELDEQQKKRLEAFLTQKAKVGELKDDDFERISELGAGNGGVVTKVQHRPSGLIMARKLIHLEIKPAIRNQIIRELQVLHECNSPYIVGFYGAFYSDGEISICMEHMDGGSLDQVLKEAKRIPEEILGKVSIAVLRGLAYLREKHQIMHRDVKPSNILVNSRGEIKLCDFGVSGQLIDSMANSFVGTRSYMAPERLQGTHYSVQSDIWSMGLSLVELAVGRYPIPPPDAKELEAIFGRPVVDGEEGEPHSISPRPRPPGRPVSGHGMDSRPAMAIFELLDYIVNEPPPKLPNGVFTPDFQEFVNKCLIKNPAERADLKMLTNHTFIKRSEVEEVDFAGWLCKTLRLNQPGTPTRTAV
Procedure: (§2) Experimental purpose: The inhibitory activity of the compounds on MEK1 and MEK2 was measured by performing a Raf-MEK-ERK cascade kinase assay using recombinant protein.
(§3) Experimental method: 2 mg of dephosphorylated myelin basic protein (MBP) was dispersed in a 0.2 M sodium carbonate aqueous solution (pH=9.4). The mixed solution was then coated onto an enzyme-linked immunosorbent assay (ELISA) plate (U-shaped bottom plate) and left to stand overnight at 4° C. […] Compound solutions with serial concentrations were tested in triplicate wells. A mixture of 2 ng of inactivated MEK1 (or 4 ng of MEK2) and 50 ng of inactivated ERK2 was dissolved in a buffer solution (20 mM MOPS [pH=7.4], 0.1% 2-mercaptoethanol, 0.1% BSA) at room temperature, and then treated with the above serial solutions on a flat plate. The plate was covered with 1% bovine serum albumin (BSA) and pre-incubated for 10 minutes. […] After incubation at 30° C. for 30 minutes, phosphorylation of MBP by ERK was detected using peroxidase-labeled anti-phosphorylated MBP antibodies. Data curves were plotted and half maximal inhibitory concentration (IC50) values were calculated using XLFit.

MEK1 = MEK1 (Homo sapiens, UniProt Q02750); assay: Raf-MEK-ERK cascade kinase assay using recombinant protein (MEK1); type: biochemical; conditions: 10 μM ATP, active B-Raf (V599E), 30° C. 30 minutes
MEK1, sequence (Q02750 whole entry): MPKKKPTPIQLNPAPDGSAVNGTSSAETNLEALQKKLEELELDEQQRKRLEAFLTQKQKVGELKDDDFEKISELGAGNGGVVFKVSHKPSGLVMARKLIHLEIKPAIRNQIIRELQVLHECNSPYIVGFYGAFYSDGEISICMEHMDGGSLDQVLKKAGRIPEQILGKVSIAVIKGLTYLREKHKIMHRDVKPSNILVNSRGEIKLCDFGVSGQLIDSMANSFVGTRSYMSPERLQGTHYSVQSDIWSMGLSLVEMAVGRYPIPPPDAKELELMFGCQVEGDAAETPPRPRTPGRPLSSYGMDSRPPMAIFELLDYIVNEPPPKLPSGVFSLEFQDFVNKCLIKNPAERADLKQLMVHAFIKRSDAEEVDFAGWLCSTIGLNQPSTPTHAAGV
Procedure: as §2, §3

[3] = tested on: human non-small cell lung cancer cells (A549); assay: Anti-proliferative activity, CCK-8 assay, A549; type: cell-based; conditions: 72 h incubation
Procedure: as §1

[4] = tested on: human colon cancer cells (HCT-15); assay: Anti-proliferative activity, CCK-8 assay, HCT-15; type: cell-based; conditions: 72 h incubation
Procedure: as §1

[5] = tested on: human colon cancer cells (HCT116); assay: Anti-proliferative activity, CCK-8 assay, HCT116; type: cell-based; conditions: HCT-116, 72 h incubation
Procedure: as §1

[6] = Body weight change of experimental mice in the xenograft study; conditions: 3 mg/kg gavage, 30 days
Description: Experimental procedure: The study evaluated the inhibitory effect of compounds administered by gavage against human HCT116 subcutaneous xenograft tumors in the BALB/c nude mouse model by measuring tumor size and calculating tumor volume (TV), relative tumor volume (RTV), relative tumor proliferation rate (T/C), and anti-tumor efficacy (TGI).

[7] = tested on: human HCT116 subcutaneous xenograft tumors; assay: In vivo anti-tumor assay, subcutaneous xenograft model; parameters: species or system BALB/c nude mouse; conditions: 3 mg/kg P.O. QD × 30 days; for Tumor growth inhibition, tumor volume change (FIG. 2): compared to the Trametinib group
Procedure: Experimental purpose: To evaluate the in vivo efficacy of the compounds in a subcutaneous xenograft model of human cancer cells in a Bagg's albino (BALB/c) nude mouse.
The tumor suppressive efficacy of the compounds was quantified by TGI (%) or relative tumor proliferation rate T/C (%). TGI (%) reflected the tumor growth inhibition rate. TGI(%) was calculated using the following equation: TGI(%)=[1−(mean tumor volume at the end of treatment in a treatment group-mean tumor volume at the start of treatment in the treatment group)/(mean tumor volume at the end of treatment in the solvent control group-mean tumor volume at the start of treatment in the solvent control group)]×100%.
T/C(%) was calculated using the following equation: T/C (%)=TRTV/CRTV×100%, where TRTV was an RTV of the treatment group, and CRTV was an RTV of the negative control group. The RTV was calculated from the results of tumor size measurements according to the following equation: RTV=Vt/V0, where V0 was a mean tumor volume measured on the day of first administration (i.e., day 0), Vt was a mean tumor volume measured on the day indicated, and TRTV and CRTV were obtained from data on the same day.

Structure (SMILES) | IC50 [1] | IC50 [2] | IC50 (MEK2) | IC50 (MEK1) | IC50 [3] | IC50 [4] | IC50 [5] | Weight loss at the end of the experiment / toxicity (FIG. 1) [6] | T/C (relative tumor proliferation rate) [7] | TGI (tumor growth inhibition rate) [7] | Tumor volume (Day 30) [7] | Tumor growth inhibition, tumor volume change (FIG. 2) [7]
CC(=S)Nc1cccc(-n2c(=O)n(C3CC3)c(=O)c3c(Nc4ccc(I)cc4F)n(C)c(=O)c(C)c32)c1 [Compound 2] | 3.6 nM | 3.1 nM | 2.13 nM | 1.83 nM | 3.1 nM | 12.6 nM | 2.6 nM | toxicity of Trametinib was higher than that of compounds 2, 8 and 12 | 9.62% | 98.72% | 165 ± 21 mm^3 | better inhibitory effects
CCC(=S)Nc1cccc(-n2c(=O)n(C3CC3)c(=O)c3c(Nc4ccc(I)cc4F)n(C)c(=O)c(C)c32)c1 [Compound 5] | 3.3 nM | 2.6 nM | 1.19 nM | – | 3.6 nM | 20.1 nM | 3.8 nM | – | – | – | – | –
Cc1c(=O)n(C)c(Nc2ccc(I)cc2F)c2c(=O)n(C3CC3)c(=O)n(-c3cccc(NC(=S)CO)c3)c12 [Compound 8] | 2.4 nM | 4.7 nM | 2.08 nM | 1.57 nM | 5.8 nM | 25.8 nM | 4.2 nM | toxicity of Trametinib was higher than that of compounds 2, 8 and 12 | 8.17% | 100.32% | 140 ± 26 mm^3 | better inhibitory effects
Cc1c(=O)n(C)c(Nc2ccc(I)cc2F)c2c(=O)n(C3CC3)c(=O)n(-c3cccc(NC(=S)CN)c3)c12 [Compound 12] | 2.3 nM | 3.1 nM | 2.13 nM | 1.51 nM | 3.1 nM | 22.7 nM | 3.6 nM | toxicity of Trametinib was higher than that of compounds 2, 8 and 12 | 7.47% | 101.08% | 128 ± 19 mm^3 | better inhibitory effects
Cc1c(=O)n(C)c(Nc2ccc(I)cc2F)c2c(=O)n(C3CC3)c(=O)n(-c3cccc(NC(=S)C(=O)O)c3)c12 [Compound 13] | 4.5 nM | 4.2 nM | 2.64 nM | 2.38 nM | 6.4 nM | 31.7 nM | 5.2 nM | – | – | – | – | –
CC(=O)Nc1cccc(-n2c(=O)n(C3CC3)c(=O)c3c(Nc4ccc(I)cc4F)n(C)c(=O)c(C)c32)c1 [Trametinib, reference compound] | 12.6 nM | 12.5 nM | – | – | 33.2 nM | 98.3 nM | 32.7 nM | – | – | 89.80% | 305 ± 34 mm^3 | –

Further compounds by falling IC50 [1], results first:

IC50 [1] | IC50 [2] | IC50 (MEK2) | IC50 (MEK1) | IC50 [3] | IC50 [4] | IC50 [5] | Structure (SMILES) | Weight loss at the end of the experiment / toxicity (FIG. 1) [6] | T/C (relative tumor proliferation rate) [7] | TGI (tumor growth inhibition rate) [7] | Tumor volume (Day 30) [7] | Tumor growth inhibition, tumor volume change (FIG. 2) [7]
2.8 nM | 2.9 nM | 1.24 nM | 1.88 nM | 3.9 nM | 13.9 nM | 1.6 nM | Cc1c(=O)n(C)c(Nc2ccc(I)cc2F)c2c(=O)n(C3CC3)c(=O)n(-c3cccc(NC(=S)C4CC4)c3)c12 [Compound 6] | – | – | – | – | –
2.7 nM | 2.4 nM | 1.54 nM | 1.37 nM | 3.4 nM | 21.8 nM | 3.1 nM | CC(=S)Nc1cc(-n2c(=O)n(C3CC3)c(=O)c3c(Nc4ccc(I)cc4F)n(C)c(=O)c(C)c32)ccc1F [Compound 11] | – | – | – | – | –
2.4 nM | 3.5 nM | 1.09 nM | 1.21 nM | 2.6 nM | 15.4 nM | 2.9 nM | CC(=S)Nc1cccc(-n2c(=O)n(C)c(=O)c3c(Nc4ccc(I)cc4F)n(C)c(=O)c(C)c32)c1 [Compound 1] | – | – | – | – | –
2.3 nM | 1.8 nM | 2.07 nM | 2.01 nM | 8.5 nM | 14.9 nM | 6.4 nM | CC(=S)Nc1cc(F)cc(-n2c(=O)n(C3CC3)c(=O)c3c(Nc4ccc(I)cc4F)n(C)c(=O)c(C)c32)c1 [Compound 10] | – | – | – | – | –
2.1 nM | 4.3 nM | 1.01 nM | 0.95 nM | 2.8 nM | 24.2 nM | 2.7 nM | Cc1c(=O)n(C)c(Nc2ccc(I)cc2F)c2c(=O)n(C3CC3)c(=O)n(-c3cccc(NC(=S)C(C)C)c3)c12 [Compound 7] | – | – | – | – | –
1.9 nM | 2.5 nM | 0.98 nM | 0.9 nM | 1.5 nM | 14.8 nM | 2.1 nM | CC(=S)Nc1cccc(-n2c(=O)n(C(C)C)c(=O)c3c(Nc4ccc(I)cc4F)n(C)c(=O)c(C)c32)c1 [Compound 3] | – | – | – | – | –
1.9 nM | 2.8 nM | 2.26 nM | 2.29 nM | 4.4 nM | 21.6 nM | 5.2 nM | CC(=S)Nc1ccc(F)c(-n2c(=O)n(C3CC3)c(=O)c3c(Nc4ccc(I)cc4F)n(C)c(=O)c(C)c32)c1 [Compound 9] | – | – | – | – | –
1.4 nM | 3.9 nM | 1.05 nM | 1.36 nM | 2.4 nM | 9.8 nM | 1.6 nM | CC(=S)Nc1cccc(-n2c(=O)n(C3CCCC3)c(=O)c3c(Nc4ccc(I)cc4F)n(C)c(=O)c(C)c32)c1 [Compound 4] | – | – | – | – | –
